Read-outs that look alike come from different tables or passages of the source.
Experiments:
HIF-1α = molecular target: T1, HIF-1α (Homo sapiens, UniProt Q16665); assay: Analysis of HIF-1α protein expression (Western blot) in ARPE-19 cells under mixed hypoxic condition; assay type: cell-based; conditions: concentration range at which HIF-1α expression is reduced by 50% vs untreated control
T1 construct: endogenous in cells; host or cells: ARPE-19 (ATCC CRL-2302)
Description: (§1) ARPE-19 cells (Human retinal pigment epithelial cells, ATCC CRL-2302) were cultured in DMEM/F12 (LM002-08, Welgene) medium containing 10% fetal bovine serum (FBS, 16000-044, Gibco) in an incubator at 37°C with 5% carbon dioxide. When the cells grew sufficiently, they were cultured in experimental culture dishes for protein isolation and medium supernatant acquisition.
(§2) Cells were detached from the culture dish using TrypLE™ Express (Gibco). After centrifugation at 1000 rpm for 3 minutes, the supernatant was removed. The cells were counted and seeded into new culture dishes. Normoxic conditions were maintained by culturing the cells in a 37°C incubator with 5% carbon dioxide, and hypoxic conditions were maintained by culturing the cells in a hypoxic incubator with 1% oxygen, 5% carbon dioxide, and 94% nitrogen gas.
In a disease of macular degeneration, hypoxia is a very important condition, and since the expression of downstream genes is regulated by HIF-1α, a transcription factor that is stabilized in hypoxic conditions, the following experiment was conducted to confirm this.
Mixed hypoxic condition was used for HIF-1α stability experiments, in which hypoxia was induced with 1% oxygen and the stability of HIF-1α was enhanced by treatment with cobalt chloride (CoCl2).
The compounds of each Example were diluted to 0.1 nM, 1 nM, 3 nM, 10 nM, 30 nM, 100 nM, 300 nM, 1 µM, and 10 µM in DMEM/F12 medium without fetal bovine serum, pretreated for 16 hours or 2 hours, and cultured for 1 hour or 24 hours in a mixed hypoxic condition. The cell medium was discarded, and protein lysates were obtained by rapidly treating with protein lysis buffer (RIPA Lysis and Extraction buffer, Thermo Fisher Scientific). LDS (4X Bolt ™ LDS Sample buffer) and reducing agent (10X Bolt ™ Sample Reducing Agent) were added together to the protein lysate, and heated at 70°C for 10 minutes. The lysate was separated by electrophoresis on a 4-12% Bis-Tris gel, transferred to a PVDF membrane, and blocked with 3% BSA (Albumin, Bovine, Fraction V, MPbio). The membrane was incubated overnight at 4°C with a mixture of anti-HIF-1α (ab179483, abcam) and anti-b-actin (MA515739, Invitrogen) antibodies at a ratio of 1:4000. The following day, the membrane was treated with a peroxidase-conjugated secondary antibody for 1 hour at room temperature, and the target protein was expressed using an ECL solution (Clarity ™ Western ECL substrate, Bio-rad) and quantified.
Based on the results of the expression level of HIF-1α in cells treated with compounds diluted from 10 µM to 0.1 nM, the concentration range of the compound at which the expression level of HIF-1α was reduced by 50% or less compared to the untreated control group was derived.

VEGF = assay: Evaluation of VEGF protein secretion level (Human VEGF ELISA) in ARPE-19 cell medium under hypoxic conditions; assay type: cell-based
Description: as §1, §2
The expression of the downstream gene, angiogenesis inducer VEGF, is regulated by HIF-1α, a major transcription factor under hypoxic conditions, and the level of secreted VEGF protein can be quantitatively confirmed through ELISA (Enzyme Linked Immunosorbent Assay, Human VEGF Quantikine ELISA Kit, R&D systems). For this purpose, the following experiment was conducted.
The compounds of each Example were diluted to 0.1 nM, 1 nM, 3 nM, 10 nM, 30 nM, 100 nM, 300 nM, 1 µM and 10 µM in DMEM/F12 medium containing 1% fetal bovine serum, pretreated for 2 hours, and cultured for 24 hours under hypoxic conditions to obtain the cell medium supernatant. The supernatant was centrifuged at 1000 rpm for 3 minutes, and a specific amount was treated with a VEGF ELISA assay kit and the absorbance value was measured at 450 nm to quantitatively confirm the level of VEGF protein (see Table 1 below).
Based on the results of secreted VEGF protein expression levels in cell media treated with compounds diluted at concentrations ranging from 10 µM to 0.1 nM, the concentration range of the compound at which the secreted VEGF protein level was reduced by 50% or less compared to the untreated control group was derived.

[1] = mixed hypoxic condition (1% oxygen + CoCl2) for 1 hour, read-out: IC50 HIF-1α Hypoxia (1 hour)
[2] = ARPE-19 cells, pretreated 2 hours, 24 hours hypoxic conditions, secreted VEGF in medium supernatant by ELISA, concentration range reducing VEGF by 50% vs untreated control, read-out: IC50 VEGF
[3] = ARPE-19 cells, pretreated 2 hours, 24 hours hypoxic conditions, ELISA, read-out: concentration at which the secreted VEGF protein level was suppressed to less than 50%
[4] = Experimental Example 2 (HIF-1α Western blot), read-out: concentration at which the expression level of VEGF was suppressed to less than 50%

T1 sequence (Q16665 whole entry): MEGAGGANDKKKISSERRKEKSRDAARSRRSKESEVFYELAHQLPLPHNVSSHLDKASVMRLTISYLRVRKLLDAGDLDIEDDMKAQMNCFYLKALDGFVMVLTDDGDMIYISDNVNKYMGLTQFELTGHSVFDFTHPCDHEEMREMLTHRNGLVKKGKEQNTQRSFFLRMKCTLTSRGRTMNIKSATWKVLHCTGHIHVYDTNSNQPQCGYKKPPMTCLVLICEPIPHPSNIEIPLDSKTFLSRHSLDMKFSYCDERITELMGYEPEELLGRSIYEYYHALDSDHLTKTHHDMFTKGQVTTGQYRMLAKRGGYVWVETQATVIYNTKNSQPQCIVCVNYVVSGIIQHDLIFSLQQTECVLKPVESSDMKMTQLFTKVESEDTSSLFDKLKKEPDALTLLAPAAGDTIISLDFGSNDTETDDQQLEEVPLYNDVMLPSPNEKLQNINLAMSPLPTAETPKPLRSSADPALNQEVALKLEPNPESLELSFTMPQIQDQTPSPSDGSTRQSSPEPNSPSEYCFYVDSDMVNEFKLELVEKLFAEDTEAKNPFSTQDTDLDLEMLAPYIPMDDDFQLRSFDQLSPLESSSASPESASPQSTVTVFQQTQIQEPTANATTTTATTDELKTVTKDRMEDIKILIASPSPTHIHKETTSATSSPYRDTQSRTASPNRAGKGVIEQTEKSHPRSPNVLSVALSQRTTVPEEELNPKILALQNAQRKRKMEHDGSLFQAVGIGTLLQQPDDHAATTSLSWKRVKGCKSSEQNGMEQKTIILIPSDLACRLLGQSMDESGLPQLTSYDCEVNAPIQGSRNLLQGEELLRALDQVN

Structure (SMILES)	DC50 (HIF-1α; [1])	IC50 (VEGF; [2])	IC50 (VEGF; [3])	IC50 (VEGF; [4])	DC50 (HIF-1α; values marked * in the table, mixed hypoxic condition (1% oxygen + CoCl2) for 24 hours, read-out: IC50 HIF-1α, Hypoxia(24h))
O=C(NCc1cc(F)cc(Nc2ccncc2)c1)c1ncnc2nc(C3CCCC3)[nH]c12 [Example 16, 8-Cyclopentyl-N-(3-fluoro-5-(pyridin-4-ylamino)benzyl)-7H-purine-6-carboxamide]	< 100 nM	100 to 1000 nM	–	–	–
O=C(NCc1cc(F)cc(Nc2cccc(C(F)(F)F)c2)c1)c1ncnc2nc(C3CCCC3)[nH]c12 [Example 17, 8-Cyclopentyl-N-(3-fluoro-5-((3-(trifluoromethyl)phenyl)amino)benzyl)-7H-purine-6-carboxamide]	< 100 nM	100 to 1000 nM	–	–	–
CN(C)c1ccc(Nc2cc(F)cc(CNC(=O)c3ncnc4nc(C5CCCC5)[nH]c34)c2)cc1 [Example 18, 8-Cyclopentyl-N-(3-((4-(dimethylamino)phenyl)amino)-5-fluorobenzyl)-7H-purine-6-carboxamide]	< 100 nM	100 to 1000 nM	–	–	–
CS(=O)(=O)c1ccc(Nc2cc(F)cc(CNC(=O)c3ncnc4nc(C5CCCC5)[nH]c34)c2)cc1 [Example 19, 8-Cyclopentyl-N-(3-fluoro-5-((4-(methylsulfonyl)phenyl)amino)benzyl)-7H-purine-6-carboxamide]	< 100 nM	100 to 1000 nM	–	–	–
O=C(NCc1cc(F)cc(Nc2ccc(Cl)cc2F)c1)c1ncnc2nc(C3CCCC3)[nH]c12 [Example 20, N-(3-((4-chloro-2-fluorophenyl)amino)-5-fluorobenzyl)-8-cyclopentyl-7H-purine-6-carboxamide]	< 100 nM	100 to 1000 nM	–	–	–
O=C(NCc1cc(F)cc(Nc2ccc(F)cc2)c1)c1ncnc2nc(C3CCCC3)[nH]c12 [Example 21, 8-Cyclopentyl-N-(3-fluoro-5-((4-fluorophenyl)amino)benzyl)-7H-purine-6-carboxamide]	< 100 nM	100 to 1000 nM	–	–	–
N#Cc1cccc(-n2cc(-c3cc(F)cc(CNC(=O)c4ncnc5nc(C6CCCC6)[nH]c45)c3)cn2)c1 [Example 23, N-(3-(1-(3-Cyanophenyl)-1H-pyrazol-4-yl)-5-fluorobenzyl)-8-cyclopentyl-7H-purine-6-carboxamide]	< 100 nM	100 to 1000 nM	–	–	–
CS(=O)(=O)c1ccc(Cn2cc(-c3cc(F)cc(CNC(=O)c4ncnc5nc(C6CCCC6)[nH]c45)c3)cn2)cc1 [Example 24, 8-Cyclopentyl-N-(3-fluoro-5-(1-(4-(methylsulfonyl)benzyl)-1H-pyrazol-4-yl)benzyl)-7H-purine-6-carboxamide]	< 100 nM	100 to 1000 nM	–	–	–
COc1ccc(-n2cc(-c3cc(F)cc(CNC(=O)c4ncnc5nc(C6CCCC6)[nH]c45)c3)cn2)cc1 [Example 25, 8-Cyclopentyl-N-(3-fluoro-5-(1-(4-methoxyphenyl)-1H-pyrazol-4-yl)benzyl)-7H-purine-6-carboxamide]	< 100 nM	100 to 1000 nM	–	–	–
O=C(NCc1cc(F)cc(-c2cnn(-c3ccc(C(F)(F)F)cc3)c2)c1)c1ncnc2nc(C3CCCC3)[nH]c12 [Example 26, 8-Cyclopentyl-N-(3-fluoro-5-(1-(4-(trifluoromethyl)phenyl)-1H-pyrazol-4-yl)benzyl)-7H-purine-6-carboxamide]	< 100 nM	100 to 1000 nM	–	–	–
O=C(NCc1cc(F)cc(-c2cnn(-c3ccc(F)cc3)c2)c1)c1ncnc2nc(C3CCCC3)[nH]c12 [Example 27, 8-Cyclopentyl-N-(3-fluoro-5-(1-(4-fluorophenyl)-1H-pyrazol-4-yl)benzyl)-7H-purine-6-carboxamide]	< 100 nM	100 to 1000 nM	–	–	–
CS(=O)(=O)c1ccc(-n2cc(-c3cc(F)cc(CNC(=O)c4ncnc5nc(C6CCCC6)[nH]c45)c3)cn2)cc1 [Example 28, 8-Cyclopentyl-N-(3-fluoro-5-(1-(4-(methylsulfonyl)phenyl)-1H-pyrazol-4-yl)benzyl)-7H-purine-6-carboxamide]	< 100 nM	100 to 1000 nM	–	–	–

More lines, now with the values ahead:

DC50 (HIF-1α; [1])	IC50 (VEGF; [2])	IC50 (VEGF; [3])	IC50 (VEGF; [4])	DC50 (HIF-1α; values marked * in the table, mixed hypoxic condition (1% oxygen + CoCl2) for 24 hours, read-out: IC50 HIF-1α, Hypoxia(24h))	Structure (SMILES)
< 100 nM	100 to 1000 nM	–	–	–	O=C(NCc1cc(F)cc(-c2cnn(Cc3cccc(C(F)(F)F)c3)c2)c1)c1ncnc2nc(C3CCCC3)[nH]c12 [Example 29, 8-Cyclopentyl-N-(3-fluoro-5-(1-(3-(trifluoromethyl)benzyl)-1H-pyrazol-4-yl)benzyl)-7H-purine-6-carboxamide]
< 100 nM	100 to 1000 nM	–	–	–	O=C(NCc1cc(F)cc(-c2cnn(-c3ccccn3)c2)c1)c1ncnc2nc(C3CCCC3)[nH]c12 [Example 30, 8-Cyclopentyl-N-(3-fluoro-5-(1-(pyridin-2-yl)-1H-pyrazol-4-yl)benzyl)-7H-purine-6-carboxamide]
< 100 nM	< 100 nM	< 100 nM	< 100 nM	–	O=C(NCc1cc(F)cc(-c2cnn(-c3cccnc3)c2)c1)c1ncnc2nc(C3CCCC3)[nH]c12 [Example 31, 8-Cyclopentyl-N-(3-fluoro-5-(1-(pyridin-3-yl)-1H-pyrazol-4-yl)benzyl)-7H-purine-6-carboxamide]
< 100 nM	100 to 1000 nM	–	–	–	O=C(NCc1cc(F)cc(-c2cnn(-c3cncnc3)c2)c1)c1ncnc2nc(C3CCCC3)[nH]c12 [Example 32, 8-Cyclopentyl-N-(3-fluoro-5-(1-(pyrimidin-5-yl)-1H-pyrazol-4-yl)benzyl)-7H-purine-6-carboxamide]
< 100 nM	100 to 1000 nM	–	–	–	COc1ccccc1Nc1cc(F)cc(CNC(=O)c2ncnc3nc(C4CCCC4)[nH]c23)c1 [Example 33, 8-Cyclopentyl-N-(3-fluoro-5-((2-methoxyphenyl)amino)benzyl)-7H-purine-6-carboxamide]
< 100 nM	100 to 1000 nM	–	–	–	COc1cccc(Nc2cc(F)cc(CNC(=O)c3ncnc4nc(C5CCCC5)[nH]c34)c2)c1 [Example 34, 8-Cyclopentyl-N-(3-fluoro-5-((3-methoxyphenyl)amino)benzyl)-7H-purine-6-carboxamide]
< 100 nM	100 to 1000 nM	–	–	–	COc1ccc(Nc2cc(F)cc(CNC(=O)c3ncnc4nc(C5CCCC5)[nH]c34)c2)cc1 [Example 35, 8-Cyclopentyl-N-(3-fluoro-5-((4-methoxyphenyl)amino)benzyl)-7H-purine-6-carboxamide]
< 100 nM	100 to 1000 nM	–	–	–	COc1ccc(Nc2cc(F)cc(CNC(=O)c3ncnc4nc(C5CCCC5)n(C)c34)c2)cc1 [Example 36, 8-Cyclopentyl-N-(3-fluoro-5-((4-methoxyphenyl)amino)benzyl)-7-methyl-7H-purine-6-carboxamide]
–	< 100 nM	< 100 nM	< 100 nM	< 100 nM	NC(=O)c1cccc(-n2cc(-c3cc(F)cc(CNC(=O)c4ncnc5nc(C6CCCC6)[nH]c45)c3)cn2)c1 [Example 37, N-(3-(1-(3-carbamoylphenyl)-1H-pyrazol-4-yl)-5-fluorobenzyl)-8-cyclopentyl-7H-purine-6-carboxamide]
< 100 nM	100 to 1000 nM	–	–	–	O=C(NCc1cc(F)cc(-c2cnsc2)c1)c1ncnc2nc(C3CCCC3)[nH]c12 [Example 38, 8-Cyclopentyl-N-(3-fluoro-5-(isothiazol-4-yl)benzyl)-7H-purine-6-carboxamide]
